{
  "source": "patent US20130165508A1",
  "about": "“METHODS AND FORMULATIONS FOR TREATING INEFFECTIVE OR DECREASED ESOPHAGAL MOTILITY” (priority 2007, published 2013)",
  "key": {"[1]": {"conditions": "systemic dosing; cited from earlier work"}, "[2]": {"assay": "Expected absorption of bethanechol from ten 0.1 ml sprays with absorption enhancer", "type": "in vivo", "excerpt": "An exemplary method comprises treating ineffective esophageal motility while reducing or virtually eliminating an undesirable side effect, particularly a parasympathetic nervous system side effect, in a mammal in need of treatment by topically administering to the pharynx and esophagus of the mammal a therapeutically effective amount of bethanechol and an absorption enhancer to facilitate esophageal peristalsis so that the undesirable side effect, particularly the parasympathetic nervous system side effect, is reduced while maintaining the therapeutic esophageal peristaltic effect. A further exemplary method comprises delivering an amount of bethanechol of between about 3 mg and about 15 mg. A further exemplary method comprises introducing about ten 0.1 ml sprays comprising 5 mg bethanechol per ml and an absorption enhancer. Of the total 5 mg introduced, it is expected about 25 percent of the bethanechol, or about 1.25 mg, is adsorbed. The remaining 3.75 mg would proceed into the stomach and intestines, and, at about a 22 percent absorption rate would result in only about 0.8 mg bethanechol being systemically adsorbed, far below the threshold necessary to produce undesirable side effects."}, "[3]": {"conditions": "cited from earlier work"}, "[4]": {"conditions": "cited from earlier work", "remark": "listed apart in the source"}, "[5]": {"biological_target": "T1, muscarinic M2 receptors (Homo sapiens, UniProt P08172)", "T1 sequence (P08172 1-466)": "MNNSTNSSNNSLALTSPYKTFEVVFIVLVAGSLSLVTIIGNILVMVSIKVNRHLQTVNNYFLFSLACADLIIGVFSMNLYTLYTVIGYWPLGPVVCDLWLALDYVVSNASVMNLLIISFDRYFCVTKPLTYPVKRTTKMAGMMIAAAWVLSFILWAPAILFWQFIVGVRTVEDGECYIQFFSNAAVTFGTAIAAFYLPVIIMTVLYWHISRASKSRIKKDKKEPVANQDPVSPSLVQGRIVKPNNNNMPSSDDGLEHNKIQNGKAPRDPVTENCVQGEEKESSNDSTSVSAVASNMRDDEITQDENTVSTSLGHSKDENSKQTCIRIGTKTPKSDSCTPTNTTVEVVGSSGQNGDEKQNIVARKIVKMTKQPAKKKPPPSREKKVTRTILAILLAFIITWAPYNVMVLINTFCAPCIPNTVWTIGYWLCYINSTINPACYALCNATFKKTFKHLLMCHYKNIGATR", "conditions": "cited from earlier work"}, "[6]": {"test_system": "patients with severe ineffective esophageal motility", "conditions": "50 mg oral doses, after 15 and 40 minutes; cited from earlier work"}, "[7]": {"assay": "Gastrointestinal absorption of oral bethanechol", "type": "in vivo", "conditions": "50 mg oral dosage at about 22 percent absorption", "description": "Thus, to achieve the beneficial effects of bethanechol on esophageal motility, systemic dosages in the range of 25-50 mg are required. Further, absorption of bethanechol at these dosage levels by the stomach and lower GI tract results in systemic distribution to other areas of the body such as the urinary tract and colon. A 50 mg oral dosage, for example, is believed to be about 22 percent absorbed in the stomach and intestines, which are rich in blood supply. This would result in a systemic level of about 11 mg of bethanechol. As described herein, however, bethanechol delivered locally to the pharynx and esophagus in a form that can more easily be absorbed by the mucosal lining of the pharynx and esophagus and delivered to the muscarinic receptors, principally the M2 receptors, can provide esophageal motility benefits, as well as increased salivation, while minimizing or avoiding systemic absorption and reducing or eliminating undesirable side effects. Enhancing the reduction or elimination of undesirable side effects is the fact that the esophagus has low vascularization, thus inhibiting the systemic absorption of bethanechol."}, "[8]": {"biological_target": "acetylcholinesterase (Homo sapiens, UniProt P22303)", "sequence (P22303 32-614, species assumed)": "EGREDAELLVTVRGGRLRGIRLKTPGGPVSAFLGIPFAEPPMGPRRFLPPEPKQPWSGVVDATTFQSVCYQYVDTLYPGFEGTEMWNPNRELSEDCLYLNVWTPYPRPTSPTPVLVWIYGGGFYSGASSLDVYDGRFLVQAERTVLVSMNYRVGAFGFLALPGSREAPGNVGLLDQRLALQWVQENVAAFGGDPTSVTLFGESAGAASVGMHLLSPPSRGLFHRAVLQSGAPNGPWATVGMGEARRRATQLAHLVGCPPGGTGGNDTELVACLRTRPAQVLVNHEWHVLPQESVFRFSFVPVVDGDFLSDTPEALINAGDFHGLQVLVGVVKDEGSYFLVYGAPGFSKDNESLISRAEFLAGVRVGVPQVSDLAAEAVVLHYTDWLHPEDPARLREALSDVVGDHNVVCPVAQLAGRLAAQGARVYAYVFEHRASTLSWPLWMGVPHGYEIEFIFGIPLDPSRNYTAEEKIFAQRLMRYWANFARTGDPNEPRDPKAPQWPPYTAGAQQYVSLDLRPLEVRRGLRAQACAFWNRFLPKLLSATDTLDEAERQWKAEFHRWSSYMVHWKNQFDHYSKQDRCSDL", "conditions": "cited from earlier work"}},
  "data": [
    {"compound": "CC(C[N+](C)(C)C)OC(N)=O", "note": "(centres unmarked) [bethanechol, 2-carbamoyloxpropyl-trimethyl-ammonium chloride]", "values": [
      {"measurement": "undesirable side effects when provided systemically", "setting": "[1]", "result": "diarrhea, flushing, increased sweating, nausea, stomach pain, or gas, and, importantly, urinary urgency"},
      {"measurement": "bethanechol systemically adsorbed from the remaining 3.75 mg", "setting": "[2]; remaining 3.75 mg in stomach and intestines at about 22 percent absorption rate", "result": "about 0.8 mg"},
      {"measurement": "fraction of bethanechol adsorbed from the spray", "setting": "[2]; ten 0.1 ml sprays, 5 mg bethanechol per ml with absorption enhancer, total 5 mg", "result": "about 25%"},
      {"measurement": "amount of bethanechol adsorbed from the spray", "setting": "[2]; ten 0.1 ml sprays, total 5 mg", "result": "about 1.25 mg"},
      {"measurement": "fraction absorbed in the stomach and intestines", "setting": "[3]; 50 mg oral dosage, \"is believed\"", "result": "about 22%"},
      {"measurement": "absorption by the mucosal lining of the gastrointestinal tract", "setting": "[3]; in vivo", "result": "poorly absorbed"},
      {"measurement": "stability and water solubility", "setting": "[4]", "result": "stable, water-soluble"},
      {"measurement": "receptor selectivity", "setting": "[5]", "result": "directly and selectively on the muscarinic M2 receptors"},
      {"measurement": "effect on esophageal motility", "setting": "[6]", "result": "improve esophageal motility"},
      {"measurement": "systemic level of bethanechol", "setting": "[7]", "result": "about 11 mg"},
      {"measurement": "inactivation by acetylcholinesterase", "setting": "[8]", "result": "not inactivated by acetylcholinesterase"}
    ]}
  ]
}
